Data published in US20180057507A1, “INHIBITORS OF DUAL LEUCINE ZIPPER (DLK) KINASE FOR THE TREATMENT OF DISEASE” (Board of Regents, The University of Texas System, priority 2016, published 2018).
pIC50, pKd: −log10 of the molar value.

How the values were obtained:
human DLK [1] = target: T1, human DLK (Homo sapiens, UniProt Q12852); experiment: Phospho-cJun Cellular Assay; type: cell-based; set-up: expressed in transfected cells; details: HEK293 cells stably transfected with Dox-inducible human DLK; p-cJun (Ser63); 5 h compound incubation
T1 sequence (Q12852 1-859): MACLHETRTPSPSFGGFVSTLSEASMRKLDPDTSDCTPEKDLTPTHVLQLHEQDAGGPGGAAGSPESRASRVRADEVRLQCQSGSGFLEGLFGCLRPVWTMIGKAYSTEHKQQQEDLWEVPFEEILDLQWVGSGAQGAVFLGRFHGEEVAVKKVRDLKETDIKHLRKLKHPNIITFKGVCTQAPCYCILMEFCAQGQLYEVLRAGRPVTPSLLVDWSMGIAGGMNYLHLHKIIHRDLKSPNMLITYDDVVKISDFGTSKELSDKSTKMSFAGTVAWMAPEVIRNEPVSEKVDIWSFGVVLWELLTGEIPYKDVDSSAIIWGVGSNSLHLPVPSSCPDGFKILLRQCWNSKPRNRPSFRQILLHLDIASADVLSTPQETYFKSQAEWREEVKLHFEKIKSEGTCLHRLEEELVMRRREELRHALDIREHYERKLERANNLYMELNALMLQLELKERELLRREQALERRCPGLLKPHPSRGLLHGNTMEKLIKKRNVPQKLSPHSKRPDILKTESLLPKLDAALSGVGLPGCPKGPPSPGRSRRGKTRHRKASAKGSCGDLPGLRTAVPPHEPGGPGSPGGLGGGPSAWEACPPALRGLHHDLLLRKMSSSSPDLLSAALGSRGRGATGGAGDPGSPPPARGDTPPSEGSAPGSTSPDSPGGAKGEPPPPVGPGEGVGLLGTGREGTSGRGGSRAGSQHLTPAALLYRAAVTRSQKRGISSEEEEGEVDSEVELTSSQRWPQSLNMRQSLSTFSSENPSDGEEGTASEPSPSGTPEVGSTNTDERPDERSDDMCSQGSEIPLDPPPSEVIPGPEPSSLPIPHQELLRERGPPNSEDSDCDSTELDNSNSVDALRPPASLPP
Method: Phospho-cJun Cellular Assay
HEK293 cells stably transfected with a Dox-inducible human DLK were plated into a 384-well plate in 20 μl (40,000 cells/well) of DMEM medium (without phenol red) containing 10% fetal bovine serum, 1.5 μg/ml doxycycline and 1 μg/ml puromycin. The cells as negative control were grown in the absence of doxycycline. The plate was incubated at 37° C., 5% CO2 for 20 h, before DMSO (control) or compounds diluted in medium were added. The cells were incubated at 37° C. for an additional 5 h, followed by lysis and the addition detection antibodies from p-cJun (Ser63) cellular assay kit (Cisbio) per manufacturer protocol. The standard dose response curves were fitted by Genedata Screener software using the variable-slope model: Signal=Signalnegative control+(SignalDMSO control−Signalnegative control)/(1+(IC50/Dose)̂Hill slope). Only signal and dose in the equation were treated as known values.

human DLK [2] = target: T1, human DLK; experiment: DLK Kd Determinations (KINOMEscan KdELECT, DiscoveRx); set-up: full length of human DLK (amino acids 1-859); host or cells: transiently transfected HEK293 cells; unpurified extract; details: fusion protein of full length human DLK (amino acids 1-859) and NFkB DNA binding domain; qPCR readout; duplicate
How it was run: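 Competition binding of full-length human DLK (aa 1-859)-NFkB DBD fusion, DNA-tagged, from HEK293 extracts against an immobilized ligand; 1 h at room temperature, 0.9% DMSO. Bead-bound kinase was quantified by qPCR. Kd came from an 11-point 3-fold series (top 30,000 nM), in duplicate, with Hill slope fixed at −1.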

Structure (SMILES)	pIC50 (human DLK [1])	pKd (human DLK [2])
CC(C)c1nc(-c2cnc(N)c(C(F)(F)F)c2)cn1[C@H]1[C@@H]2CC(N3CCOC[C@@H]3C)C[C@@H]21 (stereo partly drawn) [Example 131, 5-(2-isopropyl-1-(3-((S)-3-methylmorpholino)bicyclo[3.1.0]hexan-6-yl)-1H-imidazol-4-yl)-3-(trifluoromethyl)pyridin-2-amine]	5.86	7.47
CC(C)c1nc(-c2cnc(N)c(OC(F)(F)F)c2)cn1[C@H]1[C@@H]2CC(N3CCN(C)CC3)C[C@@H]21 (single isomer, unassigned) [Example 133a, 5-(2-isopropyl-1-(3-(4-methylpiperazin-1-yl)bicyclo[3.1.0]hexan-6-yl)-1H-imidazol-4-yl)-3-(trifluoromethoxy)pyridin-2-amine]	6.05	7.70
CC(C)c1nc(-c2cnc(N)c(C(F)(F)F)c2)cn1[C@H]1[C@@H]2CC(N3CCCOCC3)C[C@@H]21 (stereo partly drawn) [Example 142, 5-(1-(3-(1,4-oxazepan-4-yl)bicyclo[3.1.0]hexan-6-yl)-2-isopropyl-1H-imidazol-4-yl)-3-(trifluoromethyl)pyridin-2-amine]	6.03	8.03
CN1CCN(C2C[C@@H]3[C@H](C2)[C@H]3n2cc(-c3cnc(N)c(OC(F)(F)F)c3)nc2CC2CC2)CC1 (single isomer, unassigned) [Example 151b, 5-(2-(cyclopropylmethyl)-1-(3-(4-methylpiperazin-1-yl)bicyclo[3.1.0]hexan-6-yl)-1H-imidazol-4-yl)-3-(trifluoromethoxy)pyridin-2-amine]	6.08	7.70
CCCc1nc(-c2cnc(N)c(C(F)(F)F)c2)cn1[C@H]1[C@@H]2CN(CCF)C[C@@H]21 [Example 84, 5-(1-((1R,5S,6s)-3-(2-fluoroethyl)-3-azabicyclo[3.1.0]hexan-6-yl)-2-propyl-1H-imidazol-4-yl)-3-(trifluoromethyl)pyridin-2-amine]	5.79	6.80
Nc1ncc(-c2cn([C@H]3[C@@H]4CNC[C@@H]43)c(CC3CC3)n2)cc1OC(F)(F)F [Example 90, 5-(1-((1R,5S,6s)-3-azabicyclo[3.1.0]hexan-6-yl)-2-(cyclopropylmethyl)-1H-imidazol-4-yl)-3-(trifluoromethoxy)pyridin-2-amine]	5.95	7.40
CC(C)Cc1nc(-c2cnc(N)c(C(F)(F)F)c2)cn1[C@H]1[C@@H]2CC(N3CCN(C)CC3)C[C@@H]21 (single isomer, unassigned) [Example 146a, 5-(2-isobutyl-1-(3-(4-methylpiperazin-1-yl)bicyclo[3.1.0]hexan-6-yl)-1H-imidazol-4-yl)-3-(trifluoromethyl)pyridin-2-amine]	6.42	8.19
CC(C)c1nc(-c2cnc(N)c(C(F)(F)F)c2)cn1[C@H]1[C@@H]2CC(N3CCOCC3)C[C@@H]21 (single isomer, unassigned) [Example 127b]	6.20	7.21
CC(C)c1nc(-c2cnc(N)c(OC(F)F)c2)cn1[C@H]1[C@@H]2CN(C3COC3)C[C@@H]21 [Example 83, 3-(difluoromethoxy)-5-(2-isopropyl-1-((1R,5S,6s)-3-(oxetan-3-yl)-3-azabicyclo[3.1.0]hexan-6-yl)-1H-imidazol-4-yl)pyridin-2-amine]	5.45	6.80
CN1CCN(C2C[C@@H]3[C@H](C2)[C@H]3n2cc(-c3cnc(N)c(C(F)(F)F)c3)nc2C2CC2)CC1 (single isomer, unassigned) [Example 129a, 5-(2-cyclopropyl-1-(3-(4-methylpiperazin-1-yl)bicyclo[3.1.0]hexan-6-yl)-1H-imidazol-4-yl)-3-(trifluoromethyl)pyridin-2-amine]	6.30	7.89

Other lines, results leading:

pIC50 (human DLK [1])	pKd (human DLK [2])	Structure (SMILES)
5.57	7.16	CC(=O)N1C[C@@H]2[C@H](C1)[C@H]2n1cc(-c2cnc(N)c(C(F)(F)F)c2)nc1C1CC1 [Example 72, 1-((1R,5S,6s)-6-(4-(6-amino-5-(trifluoromethyl)pyridin-3-yl)-2-cyclopropyl-1H-imidazol-1-yl)-3-azabicyclo[3.1.0]hexan-3-yl)ethan-1-one]
5.94	8.35	CC(C)c1nc(-c2cnc(N)c(C(F)(F)F)c2)cn1[C@H]1[C@@H]2CC(N3CCN(CCF)CC3)C[C@@H]21 (single isomer, unassigned) [Example 155b, 5-(1-(3-(4-(2-fluoroethyl)piperazin-1-yl)bicyclo[3.1.0]hexan-6-yl)-2-isopropyl-1H-imidazol-4-yl)-3-(trifluoromethyl)pyridin-2-amine]
6.08	7.47	CC(C)Cc1nc(-c2cnc(N)c(C(F)(F)F)c2)cn1[C@H]1[C@@H]2CN(CCF)C[C@@H]21 [Example 126, 5-(1-((1R,5S,6s)-3-(2-fluoroethyl)-3-azabicyclo[3.1.0]hexan-6-yl)-2-isobutyl-1H-imidazol-4-yl)-3-(trifluoromethyl)pyridin-2-amine]
6.03	7.28	CC(C)c1nc(-c2cnc(N)c(C(F)(F)F)c2)cn1[C@H]1[C@@H]2CC(N3CCOCC3)C[C@@H]21 (single isomer, unassigned) [Example 127a]
5.92	7.25	Nc1ncc(-c2cn([C@H]3[C@@H]4CN(C5COC5)C[C@@H]43)c(C3CC3)n2)cc1C(F)(F)F [Example 73, 5-(2-cyclopropyl-1-((1R,5S,6s)-3-(oxetan-3-yl)-3-azabicyclo[3.1.0]hexan-6-yl)-1H-imidazol-4-yl)-3-(trifluoromethyl)pyridin-2-amine]
6.18	7.70	Nc1ncc(-c2cn([C@H]3[C@@H]4CC(N5CCCOCC5)C[C@@H]43)c(C3CC3)n2)cc1OC(F)(F)F (stereo partly drawn) [Example 136, 5-(1-(3-(1,4-oxazepan-4-yl)bicyclo[3.1.0]hexan-6-yl)-2-cyclopropyl-1H-imidazol-4-yl)-3-(trifluoromethoxy)pyridin-2-amine]
5.76	7.34	Nc1ncc(-c2cn([C@H]3[C@@H]4CN(C5COC5)C[C@@H]43)c(CC3CC3)n2)cc1C(F)(F)F [Example 2, 5-(2-(cyclopropylmethyl)-1-((1R,5S,6s)-3-(oxetan-3-yl)-3-azabicyclo[3.1.0]hexan-6-yl)-1H-imidazol-4-yl)-3-(trifluoromethyl)pyridin-2-amine]
6.30	7.92	CC(C)Cc1nc(-c2cnc(N)c(OC(F)(F)F)c2)cn1[C@H]1[C@@H]2CC(N3CCN(C)CC3)C[C@@H]21 (stereo partly drawn) [Example 158, 5-(2-isobutyl-1-(3-(4-methylpiperazin-1-yl)bicyclo[3.1.0]hexan-6-yl)-1H-imidazol-4-yl)-3-(trifluoromethoxy)pyridin-2-amine]
5.89	6.92	CCC(CC)c1nc(-c2cnc(N)c(C(F)(F)F)c2)cn1[C@H]1[C@@H]2CN(CCF)C[C@@H]21 [Example 125, 5-(1-((1R,5S,6s)-3-(2-fluoroethyl)-3-azabicyclo[3.1.0]hexan-6-yl)-2-(pentan-3-yl)-1H-imidazol-4-yl)-3-(trifluoromethyl)pyridin-2-amine]
6.05	7.30	CC(C)c1nc(-c2cnc(N)c(OC(F)F)c2)cn1[C@H]1[C@@H]2CC(N3CCN(C)CC3)C[C@@H]21 (single isomer, unassigned) [Example 145b, 3-(difluoromethoxy)-5-(2-isopropyl-1-(3-(4-methylpiperazin-1-yl)bicyclo[3.1.0]hexan-6-yl)-1H-imidazol-4-yl)pyridin-2-amine]
6.18	7.59	Nc1ncc(-c2cn([C@H]3[C@@H]4CC(N5CCCOCC5)C[C@@H]43)c(C3CC3)n2)cc1C(F)(F)F (single isomer, unassigned) [Example 141a, 5-(1-(3-(1,4-oxazepan-4-yl)bicyclo[3.1.0]hexan-6-yl)-2-cyclopropyl-1H-imidazol-4-yl)-3-(trifluoromethyl)pyridin-2-amine]
